{"source": "patent US12156873B2", "about": "“Composition for treating ocular hyperemia and a method for treating ocular hyperemia with the same” (ADS Therapeutics LLC, priority 2018, dated 2024)", "format_in_all_cases": "in vivo", "key": {"[1]": {"test_system": "Ocular hyperemia patients", "test": "Ocular hyperemia patients treated topically with emulsion formulations BID for 2 weeks, hyperemia graded from eye pictures", "method": "Ocular hyperemia patients with hyperemia grade >2 (0-4, five-point scale; 0 being clear of hyperemia and 4 being of severe hyperemia) are selected for treatment with 4 emulsion formulations. Each group has about 20 patients. The patients are assigned to the groups in a way to make sure the base line average grade is similar among the groups. The formulations are dosed twice a day (BID) for 2 weeks and the patients are further followed up for 4 weeks. The formulations are administered topically by a physician on the day of visits or by the patient between visits. Patients are evaluated on day 1, week 1, and 2, before and after dosing. After the stop of dosing, patients are further followed up at 4 and 6 weeks.\nThe effect on ocular hyperemia is evaluated by taking pictures of the eye. […] The tolerability of the formulations is also evaluated with standard eye examinations commonly used for such assessment. The efficacy and tolerability data are analyzed by independent statisticians."}, "pterygium patients [2]": {"test_system": "pterygium patients", "test": "Phase 2a clinical trial stage 2: 0.2% nintedanib eye drop vs vehicle, 28 days TID, pterygium vascularity graded from photographs", "method": "(§1) Nintedanib was formulated into an eye drop and tested in pterygium patients in a Phase 2a clinical trial to evaluate the safety and efficacy of nintedanib. The key efficacy endpoint is effects on pterygium vascularity.\nIn stage 2, the safety, tolerability and efficacy of the 0.2% formulation were evaluated in a randomized, double-masked, vehicle-controlled, parallel study with 28 days TID repeat ocular dosing of vehicle and 0.2% nintedanib. The patients were further followed up by 20 weeks of post-dosing observation. Ophthalmic and physical examinations were performed at screening, Day 1 and Week 2, 4, 8, 16, and 24. External photograph of the pterygium eye was taken using a digital camera and the pterygium vascularity was graded from these images at an independent image reading center. The primary objective is to evaluate ocular and systemic safety of nintedanib in pterygium patients that have moderate to severe pterygium vascularity. The secondary objective is to assess whether the formulation is efficacious in reducing pterygium vascularity.\nA total of 50 patients were enrolled and randomized in a 1:1 treatment allocation to receive either nintedanib or vehicle. The final analysis was performed after study completion. The O'Brien-Fleming group-sequential method was used for a multiple-comparison adjustment of p-values for efficacy. For the final analysis, a 2-sided test with p-value ≤0.048 is considered statistically significant for all between and within treatment comparisons."}, "pterygium patients [3]": {"test_system": "pterygium patients", "test": "Phase 2a clinical trial stage 1: single dose escalating safety, tolerability and pharmacokinetics study", "conditions": "single dose 0.02%, 0.05%, 0.2% eye drop", "method": "as §1\nThe clinic trial was conducted in two stages. In stage 1, the safety, tolerability and pharmacokinetics were evaluated in a single dose escalating study. Three dose cohorts with 8 patients in each were evaluated. Cohort 1 began at the lowest concentration of 0.02% nintedanib (weight percent based on the total weight of the eye drop), followed by an increasing dose to 0.05% for Cohort 2 and then to 0.2% for Cohort 3."}, "[4]": {"conditions": "Day 1 before dosing (baseline), 0-4 five-point scale, BID topical"}, "[5]": {"conditions": "Wee 4 (follow-up, 2 weeks after stop of dosing), 0-4 scale"}, "[6]": {"conditions": "Week 6 (follow-up, 4 weeks after stop of dosing), 0-4 scale"}}, "data": [{"smiles": "Brc1c(NC2=NCCN2)ccc2nccnc12", "note": "[Brimonidine, (5-Bromoquinoxalin-6-yl)-(4,5-dihydro-1H-imidazol-2-yl)-amine]", "values": [{"measurement": "Average Hyperemia Grade", "setting": "[1]; Day 1 2 h post, 0-4 scale", "value": 2}, {"measurement": "Average Hyperemia Grade", "setting": "[1]; Day 1 6 h post, 0-4 scale", "value": 3}, {"measurement": "Average Hyperemia Grade", "setting": "[1]; [4]", "value": 3}, {"measurement": "Average Hyperemia Grade", "setting": "[1]; [5]", "value": 3}, {"measurement": "Average Hyperemia Grade", "setting": "[1]; Week 1 2 h post, 0-4 scale", "value": 2}, {"measurement": "Average Hyperemia Grade", "setting": "[1]; Week 1 before, 0-4 scale", "value": 3}, {"measurement": "Average Hyperemia Grade", "setting": "[1]; Week 2 2 h post, 0-4 scale", "value": 2}, {"measurement": "Average Hyperemia Grade", "setting": "[1]; Week 2 before, 0-4 scale", "value": 3}, {"measurement": "Average Hyperemia Grade", "setting": "[1]; [6]", "value": 3}, {"measurement": "duration of effect on hyperemia grade at each of the visits", "setting": "[1]; after dosing", "value": "2 to 4", "unit": "h"}, {"measurement": "hyperemia grade after dosing", "setting": "[1]; day 1, week 1 and 2", "value": "reduced immediately after dosing"}, {"measurement": "hyperemia grade after stop of treatments", "setting": "[1]; week 4 and 6", "value": "the same as the baseline"}]}, {"smiles": "COC(=O)c1ccc2c(c1)NC(=O)/C2=C(\\Nc1ccc(N(C)C(=O)CN2CCN(C)CC2)cc1)c1ccccc1", "note": "[Nintedanib, (Z)-3-(1-(4-(N-((4-methyl-piperazin-1-yl)-methylcarbonyl)-N-methyl-amino)-phenylamino)-1-phenyl-methylene]-6-methoxycarbonyl-2-indolinone]", "values": [{"measurement": "Average Hyperemia Grade", "setting": "[1]; Day 1 2 h post, 0-4 scale", "value": 3}, {"measurement": "Average Hyperemia Grade", "setting": "[1]; Day 1 6 h post, 0-4 scale", "value": 3}, {"measurement": "Average Hyperemia Grade", "setting": "[1]; [4]", "value": 3}, {"measurement": "Average Hyperemia Grade", "setting": "[1]; [5]", "value": 2.5}, {"measurement": "Average Hyperemia Grade", "setting": "[1]; Week 1 2 h post, 0-4 scale", "value": 2}, {"measurement": "Average Hyperemia Grade", "setting": "[1]; Week 1 before, 0-4 scale", "value": 2}, {"measurement": "Average Hyperemia Grade", "setting": "[1]; Week 2 2 h post, 0-4 scale", "value": 2}, {"measurement": "Average Hyperemia Grade", "setting": "[1]; Week 2 before, 0-4 scale", "value": 2}, {"measurement": "Average Hyperemia Grade", "setting": "[1]; [6]", "value": 3}, {"measurement": "time the grade reduction remained significant after the stop of dosing", "setting": "[1]; after 2 weeks BID dosing", "value": 2, "unit": "weeks"}, {"measurement": "hyperemia grade, drug effect on day 1", "setting": "[1]; day 1, comparing to the baseline", "value": "did not change significantly"}, {"measurement": "hyperemia grade reduction from baseline", "setting": "[1]; week 1 and 2", "value": "about 1 grade"}, {"measurement": "safety and tolerability", "setting": "pterygium patients [2]; 0.2% eye drop, 28 days TID", "value": "excellent with no serious adverse events"}, {"measurement": "Mean grade Difference, nintedanib vs vehicle (pterygium vascularity)", "setting": "pterygium patients [2]; Day 1 (baseline)", "value": "−0.15"}, {"measurement": "Mean change from baseline Difference, nintedanib vs vehicle (pterygium vascularity)", "setting": "pterygium patients [2]; Week 2", "value": "−0.72"}, {"measurement": "Mean grade Difference, nintedanib vs vehicle (pterygium vascularity)", "setting": "pterygium patients [2]; Week 2", "value": "−0.87"}, {"measurement": "Mean change from baseline Difference, nintedanib vs vehicle (pterygium vascularity)", "setting": "pterygium patients [2]; Week 4 (end of dosing)", "value": "−0.76"}, {"measurement": "Mean grade Difference, nintedanib vs vehicle (pterygium vascularity)", "setting": "pterygium patients [2]; Week 4 (end of dosing)", "value": "−0.91"}, {"measurement": "Mean change from baseline Difference, nintedanib vs vehicle (pterygium vascularity)", "setting": "pterygium patients [2]; Week 8", "value": "−0.41"}, {"measurement": "Mean grade Difference, nintedanib vs vehicle (pterygium vascularity)", "setting": "pterygium patients [2]; Week 8", "value": "−0.53"}, {"measurement": "Mean change from baseline Difference, nintedanib vs vehicle (pterygium vascularity)", "setting": "pterygium patients [2]; Week 16", "value": "−0.59"}, {"measurement": "Mean grade Difference, nintedanib vs vehicle (pterygium vascularity)", "setting": "pterygium patients [2]; Week 16", "value": "−0.7"}, {"measurement": "Mean change from baseline Difference, nintedanib vs vehicle (pterygium vascularity)", "setting": "pterygium patients [2]; Week 24 (end of study)", "value": "−0.17"}, {"measurement": "Mean grade Difference, nintedanib vs vehicle (pterygium vascularity)", "setting": "pterygium patients [2]; Week 24 (end of study)", "value": "−0.31"}, {"measurement": "persistence of effect on pterygium vascularity", "setting": "pterygium patients [2]; after 28 days TID dosing", "value": "maintained through Week 16"}, {"measurement": "effect on pterygium vascularity", "setting": "pterygium patients [2]; by Week 2", "value": "highly significant"}, {"measurement": "safety", "setting": "pterygium patients [3]", "value": "No safety issues were found at all doses"}]}]}
